Assay results published in US11058756B2, “Compositions and methods of treating autoimmune disease by reducing enterococcus” (YALE UNIVERSITY, priority 2017, dated 2021).

Tests used:
E. gallinarum = experiment: Assessment of bacterial translocation and tissue burden (anaerobic tissue cultures, CFU); type: in vivo, mouse; details: (NZWxBXSB)F1 mice, antibiotics in drinking water; 16-18 weeks of age; FIG. 1K-1N
From the text: Mice were cohoused for 3 to 4 weeks before antibiotic treatment to allow for equilibration of the microbiota. Single antibiotic or broad-spectrum antibiotic administration consisted of metronidazole (1 g/liter; Fisher Scientific), neomycin (1 g/liter; Fisher Scientific), ampicillin (1 g/liter; Sigma) and vancomycin (0.5 g/liter; Acros Organics) in the drinking water for up to 22 weeks or a targeted regiment for 2 weeks and then replaced with regular water for the duration of the experiment. For broad-spectrum antibiotic experiments (vancomycin, ampicillin, metronidazole, and neomycin combined), sweetener (Equal, 4 g/L) was added to both the antibiotics and control water due to the metallic taste of metronidazole. […] E. gallinarum was grown at 37° C. in Gifu Anaerobic Broth (HIMEDIA Laboratories) to early stationary phase under anaerobic conditions (82% N2, 15% CO2, 3% H2 by volume) in an anaerobic chamber and diluted in PBS to 10^7 CFUs.
14-, 16- and 18-week-old mice underwent sterile laparotomy and nose, mouth, small intestine (luminal and adherent fractions), mesenteric veins, mesenteric lymph nodes (MLN), liver and spleen were aseptically collected in BBL Mycoflask Thioglycollate (Fluid) Prepared Media (BD Diagnostic Systems) and incubated for 72 hours in anaerobic conditions at 37° C. Gifu Media Agar plates were streaked with the content from the BBL Mycoflask Thioglycollate and incubated for 48 hours in an anaerobic chamber at 37° C. Colony Formation Units (CFU) were counted and concentration determined per milligram of tissue. Single colonies were grown in Gifu anaerobic media for 48 hours in an anaerobic chamber at 37° C. and aliquots from each sample were collected and centrifuge for 10 minutes at 10000×g. DNA was extracted from bacterial pellets using DNeasy Blood and Tissue kit (Qiagen) and submitted to PCR amplification of the 16S region and Sanger sequencing. In addition, purified DNA was used for eubacterial, Enterococcus genus and Enterococcus gallinarum PCR assays.

(NZWxBXSB)F1 mice [1] = experiment: Oral antibiotics in drinking water: mortality, clinical outcome, proteinuria and organ histology in the autoimmune hybrid model; type: in vivo, mouse
From the text: 6-week-old male (NZWxBXSB)F1 mice and C57BL/6J mice were used in this study except if noted otherwise. (NZWxBXSB)F1 were bred by mating NZW/LaJ females with BXSB/MpJ males obtained from Jackson Laboratory (Bar Harbor, Me., USA). Parental littermates of (NZWxBXSB)F1 were randomly mixed with littermates from other parental cages 21 days after birth to equilibrate the microbiomes from different cages and parental origin. All mice were maintained in a specific-pathogen-free environment. (NZWxBXSB)F1 mice were provided with water and a standard laboratory diet ad libitum (2018 Harlan Teklad, South Easton, Mass., USA). They were supplied with hardwood chips as bedding and were housed in a temperature-controlled, air-conditioned room on a 12-hr light-dark cycle. Germ-free (GF) C57BL/6 mice were kept under sterile conditions in CBC's (Class Biologically Clean, Madison, Wis., USA) Quad flexible film isolators (Softwall), exposed to a 12-hr light/dark cycle and provided standard, autoclaved tap water and mouse chow (2018S Harlan Teklad, South Easton, Mass., USA) ad libitum. To exclude a Th17 bias, a PCR for segmented filamentous bacteria (SFB) was performed on fecal DNA from all mice involving Th17 studies. Fecal SFB detection at 6-8 weeks of age that correlates with ileal SFB colonization was performed as described (Barman et al., 2008, Infect Immun, 76, 907-915; Kriegel et al., 2011, Proc Natl Acad Sci USA, 108, 11548-11553). All Th17 data was derived from SFB-negative animals.
(§1) Mice were cohoused for 3 to 4 weeks before antibiotic treatment to allow for equilibration of the microbiota. Single antibiotic or broad-spectrum antibiotic administration consisted of metronidazole (1 g/liter; Fisher Scientific), neomycin (1 g/liter; Fisher Scientific), ampicillin (1 g/liter; Sigma) and vancomycin (0.5 g/liter; Acros Organics) in the drinking water for up to 22 weeks or a targeted regiment for 2 weeks and then replaced with regular water for the duration of the experiment. For broad-spectrum antibiotic experiments (vancomycin, ampicillin, metronidazole, and neomycin combined), sweetener (Equal, 4 g/L) was added to both the antibiotics and control water due to the metallic taste of metronidazole. Twenty-four hours after cessation of antibiotic water, mice were administered 1×10^6 CFUs of vancomycin-resistant E. gallinarum via oral gavage, isolated from liver tissue of a vancomycin-treated mouse that continued to show signs of autoimmune disease (high-level resistance was confirmed by vanC gene PCR). E. gallinarum was grown at 37° C. in Gifu Anaerobic Broth (HIMEDIA Laboratories) to early stationary phase under anaerobic conditions (82% N2, 15% CO2, 3% H2 by volume) in an anaerobic chamber and diluted in PBS to 10^7 CFUs.
Samples were obtained at autopsy and fixed in 10% neutral formalin, and histological sections were stained with hematoxylin and eosin (H&E) and scored in a blinded fashion. Glomerulonephritis was scored on a scale of 0-4 based on the intensity and extent of histopathological changes (Klopfleisch, 2013, BMC Vet Res, 9, 123). A grade of 0 was given to kidneys without glomerular lesions; grade 1 consisted of minimal thickening of the mesangium; grade 2 contained noticeable increases in both mesangial and glomerular cellularity; grade 3 was characterized by the preceding conditions with superimposed inflammatory exudates and capsular adhesions; and grade 4 consisted of obliterated glomerular architecture in greater than 70% of glomeruli. […]

AhR = target: T1, AhR (Mus musculus, UniProt P30561); experiment: AhR antagonist experiment in E. gallinarum-gavaged (NZWxBXSB)F1 mice; type: in vivo; details: 4 weeks; for Th17-inducing effects of E. gallinarum (MLN Th17 cell frequency): CH223191 i.p. 300 μg/mouse/day, 5 days a week, ABX-pretreated, E. gallinarum gavaged, FIG. 20; for autoantibodies-inducing effects of E. gallinarum (serum anti-RNA and anti-dsDNA IgG): CH223191 i.p. 5 days a week, FIG. 4O-4P
T1 construct: mice were injected i.p. with 300 mg of CH223191 (a selective AhR antagonist; Sigma-Aldrich) or mock 5 days a week; from tissue; host or cells: whole animal: (NZWxBXSB)F1 hybrid mice
T1 sequence (P30561 10-848): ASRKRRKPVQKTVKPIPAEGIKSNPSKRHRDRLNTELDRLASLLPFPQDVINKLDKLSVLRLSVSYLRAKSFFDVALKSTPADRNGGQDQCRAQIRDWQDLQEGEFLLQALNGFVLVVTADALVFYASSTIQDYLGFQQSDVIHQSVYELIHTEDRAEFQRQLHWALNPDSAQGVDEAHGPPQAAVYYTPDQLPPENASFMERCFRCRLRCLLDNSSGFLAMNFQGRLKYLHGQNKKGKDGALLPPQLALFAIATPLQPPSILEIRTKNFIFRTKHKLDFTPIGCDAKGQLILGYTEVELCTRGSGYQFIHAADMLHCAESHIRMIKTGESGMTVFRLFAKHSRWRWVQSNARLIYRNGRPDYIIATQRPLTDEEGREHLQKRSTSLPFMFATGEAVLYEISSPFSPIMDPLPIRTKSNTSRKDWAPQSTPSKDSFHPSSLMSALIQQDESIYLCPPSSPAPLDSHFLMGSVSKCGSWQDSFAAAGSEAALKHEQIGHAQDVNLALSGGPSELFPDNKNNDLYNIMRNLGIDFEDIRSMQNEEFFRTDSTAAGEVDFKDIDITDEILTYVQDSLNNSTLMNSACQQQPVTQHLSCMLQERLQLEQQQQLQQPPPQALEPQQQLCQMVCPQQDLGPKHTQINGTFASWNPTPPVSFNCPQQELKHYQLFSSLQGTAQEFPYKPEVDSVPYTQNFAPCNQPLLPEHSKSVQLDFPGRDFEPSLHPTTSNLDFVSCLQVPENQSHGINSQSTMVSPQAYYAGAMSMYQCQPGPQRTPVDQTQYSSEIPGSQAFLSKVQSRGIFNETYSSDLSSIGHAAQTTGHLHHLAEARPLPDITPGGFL
Description: (§2) Serum antibodies specific for dsDNA and b2GPI were determined using standardized ELISAs (anti-dsDNA antibody, Abcam; and, Mouse/Rat Apolipoprotein H Antibody, R&D Systems; respectively). Anti-RNA was determined by ELISA using defined positive controls (Human/Mouse RNA Polymerase II Antibody, R&D systems). Anti-ERV gp70 ICs and ERV gp70 protein were determined by OD450 signal comparisons (Evans et al., 1990, J Virol, 64, 6176-6183). For anti-dsDNA ELISAs, DNA-BIND™ (Corning) plates were coated with 100 μg/ml salmon sperm DNA (Fisher Scientific) and blocked in 0.1M PBS, 3.0% BSA, 5.0% FBS. The serum was diluted 1:1000 for the assay and incubated for 1 hour at 37° C. Wells were washed and incubated for 1 hour at 37° C. with rabbit anti-mouse IgG (Fisher Scientific) conjugated to HRP and developed with TMB substrate solution. 2M sulfuric acid (Sigma) solution was used to stop development. The concentration of anti-dsDNA was determined by reading the absorbance at 450 nm/570 nm reference.
(§3) For anti-RNA ELISAs, DNA-BIND™ (Corning) plates were coated with […] yeast RNA (Ambion) and blocked in 0.1M PBS, 0.05% Tween-20, 5.0% FBS. The serum was diluted 1:1000 for the assay and incubated for 1 hour at 37° C. Wells were washed and incubated for 1 hour at 37° C. with rabbit anti-mouse IgG (Fisher Scientific) conjugated to HRP and developed with TMB substrate solution. 2M sulfuric acid (Sigma) solution was used to stop development. The concentration of anti-RNA IgG was determined by reading the absorbance at 450 nm/570 nm reference.
For direct ex vivo intracellular cytokine detection, cells isolated from small intestinal lamina propria, MLN or spleen were immediately treated with GolgiStop (BD Bioscience) and surface-stained in FACS buffer (PBS, 2% bovine serum albumin, 0.2 mg of sodium azide, 2 mM EDTA) for 30 minutes in the dark at room temperature with fluorescently conjugated antibodies specific for CD3, CD4, CD11b, CD11c, CD44, CD62L, CD19, CD45, CD45R (B220), CXCR5, GITR, IL-17, IFN-g, Ly6C, NK1.1, PDCA-1, PD-1 and PSGL-1. After staining for surface antigens, some B cells and T cells were stained for intracellular cytokines using intracellular cytokine fixation buffer (eBioscience) and fluorescently conjugated antibodies specific for IL-17, IFN-g and FoxP3 (eBioscience) for 30 minutes in the dark at room temperature. Cell viability was assessed with Zombie NIR Fixable Viability Kit (BioLegend).
(NZWxBXSB)F1 mice were treated with broad-spectrum antibiotics (vancomycin, ampicillin, neomycin and metronidazole) from 10 weeks to 14 weeks of age. 24 hours later mice were gavaged with E. gallinarum every week for 4 weeks. […]

(NZWxBXSB)F1 mice [2] = experiment: Serum ELISAs for anti-dsDNA, anti-RNA, anti-β2GPI IgG, ERV gp70 protein and anti-ERV gp70 immune complexes; type: in vivo, mouse; details: single antibiotic in drinking water; 16 weeks of age; FIG. 1B-1C
From the text: as §1, §2, §3
For anti-b2GPI ELISAs, Corning® 96-well EIA/RIA easy Wash™ clear flat-bottom polystyrene high-bind microplates were coated with […] recombinant b2GPI/ApoH (R&D Systems) and blocked in Pierce Protein-Free (PBS) Blocking Buffer (Thermo Scientific). The serum was diluted 1:100 for the assay and incubated at room temperature for 2 hours on a shaker. Wells were washed and incubated while shaking for 30 minutes at room temperature with goat anti-mouse IgG (Fisher Scientific) conjugated to HRP and developed with TMB substrate solution. 2M sulfuric acid (Sigma) solution was used to stop development. The concentration of anti-b2GPI was determined by reading the absorbance at 450 nm/650 nm reference. […]

[3] = listed as AHR-selective antagonist

Compound: neomycin
- Translocation (bacterial growth in mesenteric veins, MLN, liver, spleen) (E. gallinarum): only to a lesser degree
- clinical outcomes ((NZWxBXSB)F1 mice [1]; neomycin 1.0 g/L in drinking water): did not alter

Compound: Cc1ccccc1N=Nc1ccc(NC(=O)c2ccnn2C)c(C)c1 [CH223191]
- Th17-inducing effects of E. gallinarum (MLN Th17 cell frequency) (AhR): reverses
- Th17-inducing effects of E. gallinarum (MLN Th17 cell frequency) (AhR; [3]): abrogated
- autoantibodies-inducing effects of E. gallinarum (serum anti-RNA and anti-dsDNA IgG) (AhR): reverses
- autoantibodies-inducing effects of E. gallinarum (serum anti-RNA and anti-dsDNA IgG) (AhR; [3]): abrogated

Compound: CC1(C)S[C@@H]2[C@H](NC(=O)[C@H](N)c3ccccc3)C(=O)N2[C@H]1C(=O)O [ampicillin]
- lupus-related autoantibodies (serum anti-dsDNA and anti-RNA IgG) ((NZWxBXSB)F1 mice [2]): prevented
- Mortality ((NZWxBXSB)F1 mice [1]; single antibiotic in drinking water from 6 weeks of age, followed for 30 weeks or until death, FIG. 1A): prevented
- autoimmune manifestations (proteinuria, organ histology scores) ((NZWxBXSB)F1 mice [1]; single antibiotic in drinking water, FIG. 1D-1I): prevented
